Test results taken from ChEMBL document CHEMBL3352287, “Cytotoxic resin glycosides from Ipomoea aquatica and their effects on intracellular Ca2+ concentrations” (J Nat Prod, 2014).
The source made the active and inactive calls. The calls are words filed in the database; no cut-off is given here.

Legend:
MCF7 [1] = assay: Cytotoxicity against human MCF7 cells after 48 hrs by MTT assay; type: functional, cell-based; details: MCF7, 48 h
[2] = Cytotoxicity against human MG63 cells after 48 hrs by MTT assay; type: functional, cell-based; details: MG-63, 48 h
HepG2 [3] = assay: Cytotoxicity against human HepG2 cells after 48 hrs by MTT assay; type: functional, cell-based; details: HepG2, 48 h
SMMC-7721 [4] = assay: Cytotoxicity against human SMMC7721 cells after 48 hrs by MTT assay; type: functional, cell-based; details: SMMC-7721, 48 h
U2OS [5] = assay: Cytotoxicity against human U2OS cells after 48 hrs by MTT assay; type: functional, cell-based
[6] = Cytotoxicity against human MCF7/ADR cells after 48 hrs by MTT assay; type: functional, cell-based; details: NCI/ADR-RES
HepG2 [7] = assay: Increase in intracellular Ca2+ level in human HepG2 cells assessed as increase in fluorescence intensity at 30 uM after 6 hrs by Fluo-3 AM -based fluorescence assay relative to control; type: functional
HepG2 [8] = assay: Cell cycle arrest in human HepG2 cells assessed as increase in G0/G1 phase cells after 48 hrs using propidium iodide by flow cytometry; type: functional, cell-based
HepG2 [9] = assay: Cell cycle arrest in human HepG2 cells assessed as increase in subG1 phase cells at 8 uM after 48 hrs using propidium iodide by flow cytometry; type: functional, cell-based
HepG2 [10] = assay: Cytotoxicity against human HepG2 cells at 10 uM after 48 hrs by MTT assay; type: functional, cell-based
MCF7 [11] = assay: Cytotoxicity against human MCF7 cells at 10 uM after 48 hrs by MTT assay; type: functional, cell-based
NCI/ADR-RES = assay: Cytotoxicity against human MCF7/ADR cells at 10 uM after 48 hrs by MTT assay; type: functional, cell-based
MG-63 = assay: Cytotoxicity against human MG63 cells at 10 uM after 48 hrs by MTT assay; type: functional, cell-based
SMMC-7721 [12] = assay: Cytotoxicity against human SMMC7721 cells at 10 uM after 48 hrs by MTT assay; type: functional, cell-based
U2OS [13] = assay: Cytotoxicity against human U2OS cells at 10 uM after 48 hrs by MTT assay; type: functional, cell-based

Row | Structure (SMILES) | IC50 (MCF7 [1]) [µM] | IC50 [2] [µM] | IC50 (HepG2 [3]) [µM] | IC50 (SMMC-7721 [4]) [µM] | IC50 (U2OS [5]) [µM] | IC50 [6] [µM] | IC50 ([2]; read-out: IC50) [µM] | Activity (HepG2 [7]) | Activity (HepG2 [8]) | Activity (HepG2 [9]) | Activity (HepG2 [10]) | Activity (MCF7 [11]) | Activity (NCI/ADR-RES) | Activity (MG-63) | Activity (SMMC-7721 [12]) | Activity (U2OS [13])
1 | COc1cccc2c1C(=O)c1c(O)c3c(c(O)c1C2=O)C[C@@](O)(C(=O)CO)C[C@@H]3O[C@H]1C[C@H](N)[C@H](O)[C@H](C)O1 [DOXORUBICIN] | 0.46 | 0.74 | 0.36 | 1.1 | 0.65 |  |  |  |  |  |  |  |  |  |  | 
2 | CCCCCCCCCC(=O)O[C@H]1[C@H](O[C@@H]2[C@H]3OC(=O)CCCCCCCCC[C@H](CCCCC)O[C@@H]4O[C@H](C)[C@H](O)[C@H](O)[C@H]4O[C@H](O[C@H]2C)[C@@H]3O)O[C@@H](C)[C@H](O[C@@H]2O[C@@H](C)[C@H](OC(=O)CCCCCCC)[C@@H](O)[C@H]2O)[C@H]1O[C@@H]1O[C@@H](C)[C@H](O)[C@@H](O)[C@H]1O | 9.8 |  | 4.9 | > 10 | > 10 | > 10 | 6 | Active |  |  |  |  |  |  |  | 
3 | CCCCCCCC(=O)O[C@@H]1[C@@H](O)[C@@H](O)[C@H](O[C@@H]2[C@@H](O[C@@H]3O[C@@H](C)[C@H](O)[C@@H](O)[C@H]3O)[C@@H](OC(=O)CCCCCCC)[C@H](O[C@@H]3[C@H]4OC(=O)CCCCCCCCC[C@H](CCCCC)O[C@@H]5O[C@H](C)[C@H](O)[C@H](O)[C@H]5O[C@H](O[C@H]3C)[C@@H]4O)O[C@H]2C)O[C@H]1C | 5 |  | 5.2 | 9 | 9.6 | > 10 | 3.7 | Active |  |  |  |  |  |  |  | 
4 | CCCCCCCC(=O)O[C@@H]1[C@@H](O)[C@@H](O)[C@H](O[C@@H]2[C@@H](O[C@@H]3O[C@@H](C)[C@H](O)[C@@H](O)[C@H]3O)[C@@H](OC(=O)CCCCC)[C@H](O[C@@H]3[C@H]4OC(=O)CCCCCCCCC[C@H](CCCCC)O[C@@H]5O[C@H](C)[C@H](O)[C@H](O)[C@H]5O[C@H](O[C@H]3C)[C@@H]4O)O[C@H]2C)O[C@H]1C | 4.2 |  | 2.4 | 6.3 | 4.5 | > 10 | 5.3 | Active | Dose-dependent effect | Active |  |  |  |  |  | 
5 | CCCCCCCC(=O)O[C@@H]1[C@@H](O)[C@H](C)O[C@@H](O[C@@H]2[C@@H](O[C@@H]3O[C@H](CO)[C@@H](O)[C@H](O)[C@H]3O)[C@@H](OC(=O)CCCCCCC)[C@H](O[C@@H]3[C@H]4OC(=O)CCCCCCCCC[C@H](CCCCC)O[C@@H]5O[C@H](C)[C@H](O)[C@H](O)[C@H]5O[C@H](O[C@H]3C)[C@@H]4O)O[C@H]2C)[C@@H]1O |  |  |  |  |  |  |  |  |  |  | inactive | inactive | inactive | inactive | inactive | inactive
6 | CCCCCCCC(=O)O[C@@H]1[C@@H](O)[C@@H](O)[C@H](O[C@@H]2[C@@H](O[C@@H]3O[C@@H](C)[C@H](O)[C@@H](O)[C@H]3O)[C@@H](OC(=O)[C@@H](C)CC)[C@H](O[C@@H]3[C@H]4OC(=O)CCCCCCCCC[C@H](CCCCC)O[C@@H]5O[C@H](C)[C@H](O)[C@H](O)[C@H]5O[C@H](O[C@H]3C)[C@@H]4O)O[C@H]2C)O[C@H]1C | 4.1 |  | 3.7 | 9.5 | 9.4 | > 10 | 7.7 | Active |  |  |  |  |  |  |  | 
7 | CCCCCCCC(=O)O[C@@H]1[C@@H](O)[C@@H](O)[C@H](O[C@@H]2[C@@H](O[C@@H]3O[C@H](CO)[C@@H](O)[C@H](O)[C@H]3O)[C@@H](OC(=O)CCCCCCC)[C@H](O[C@@H]3[C@H]4OC(=O)CCCCCCCCC[C@H](CCCCC)O[C@@H]5O[C@H](C)[C@H](O)[C@H](O)[C@H]5O[C@H](O[C@H]3C)[C@@H]4O)O[C@H]2C)O[C@H]1C | 7.4 |  | 8.5 | > 10 | > 10 | > 10 | 5.4 | >200% |  |  |  |  |  |  |  | 
